Experimental data as given in patent publication US12636270B2, “Levothyroxine liquid formulations” (Fresenius Kabi USA, LLC, priority 2016, dated 2026).
Where two headings read alike, the source gives them in different places.

Details: 55° C., 1 W, 20 mcg/mL, glycerol 100 mg/mL, normal saline
Description: The HPLC conditions were as follows: • Column: Waters […]™ C8 (5 μm, 4.6×150 mm) HPLC column • Mobile Phase A: Sodium heptanesulfonate/Acetonitrile/Water/Methanol/H3PO4 (4.023 g/800 mL/1600 mL/1600 mL/4 mL) • Mobile Phase B: Sodium heptanesulfonate/Acetonitrile/Water/Methanol/H3PO4 (2.013 g/1000 mL/100 mL/900 mL/2 mL) • Diluent: 0.01 N NaOH • Column temperature: 25° C. • Flow rate: 1.5 mL/min • Injection volume: 40-200 μL • Autosampler temperature: 5° C. • Detection: UV at 225 nm • Separation mode: Gradient Gradient Program:
Separate samples containing levothyroxine sodium at a concentration of 20 mcg/mL and glycerol at a concentration of 100 mg/mL in normal saline were adjusted to pH levels of 7, 8, and 9. 5 mL of each sample was filled into 10 cc amber tubing vials, and the vials were stoppered with 20 mm stoppers under nitrogen. The samples were stored at a temperature of 55° C. The samples were analyzed by HPLC at 1 week of storage using the HPLC conditions described in Example 1. The results for liothyronine, largest unknown impurity, and total impurities as determined by peak area percent are set forth in Table 7.

Q: What does the source list for `N[C@@H](Cc1cc(I)c(Oc2cc(I)c(O)c(I)c2)c(I)c1)C(=O)[O-].[Na+]` [Levothyroxine Na, 4-(4-hydroxy-3,5-diiodophenoxy)-3,5-diiodo-L-phenylalanine sodium]?
A: % Liothyronine (pH 7): 3.6%; % largest unknown impurity (pH 7): 1.16%; % total impurities (pH 7): 5.3%; % Liothyronine (pH 8): 3.4%; % largest unknown impurity (pH 8): 1.30%; % total impurities (pH 8): 5.4%; % Liothyronine (pH 9): 2.4%; % largest unknown impurity (pH 9): 0.82%; % total impurities (pH 9): 3.8%
